Among the data in patent EP2832223A1, “HERBICIDAL COMPOSITION” (Ishihara Sangyo Kaisha, Ltd., priority 2012, dated 2013) are inhibition values, retold here.

Common to all, as to type: in vivo
Assay [1] relates to Japanese millet (Echinochloa utilis Ohwi et Yabuno). The experiment in a line: Test Example 5: pot test, soil treatment, visual growth inhibition. Particulars: soil, read-out: Growth inhibition rate (%) of Japanese millet Measured value. The procedure: Upland field soil was put into a 1/300,000 ha pot, and seeds of Japanese millet (Echinochloa utilis Ohwi et Yabuno) were sown. On the next day, predetermined amounts of ONEHOPE NYUZAI (tradename), Click (tradename) and SC formulation containing topramezone as an active ingredient (tradename: Clio, manufactured by BASF) were diluted with water (in an amount corresponding to 1,000 L/ha) and applied for soil treatment by a small sprayer.
On the 28th day after treatment, the state of growth of the Japanese millet was visually observed to determine the growth inhibition rate (%). The growth inhibition rate (%) (measured value) and the growth inhibition rate (%) calculated in the same manner as in the above Test Example 1 are shown in Table 5.

Assay [2] concerns rostrate sesbania (Sesbania rostrata Bremek. & Oberm.). The experiment in a line: Test Example 8: pot test, soil treatment, visual growth inhibition. As to conditions: soil, read-out: Growth inhibition rate (%) of rostrate sesbania Measured value. As to the method:
Upland field soil was put into a 1/300,000 ha pot, and seeds of rostrate sesbania (Sesbania rostrata Bremek. & Oberm.) were sown. On the next day, predetermined amounts of ONEHOPE NYUZAI (tradename), Click (tradename), Spectrum (tradename) and Clio (tradename) were diluted with water (in an amount corresponding to 1,000 L/ha) and applied for soil treatment by a small sprayer.
On the 28th day after treatment, the state of growth of the rostrate sesbania was visually observed to determine the growth inhibition rate (%). The growth inhibition rate (%) (measured value) and the growth inhibition rate (%) calculated in the same manner as in the above Test Example 1 are shown in Table 8.

For assay [3], the system named is prickly sida (Sida spinosa L.). The experiment in a line: Test Example 10: pot test, soil treatment, visual growth inhibition. As to conditions: read-out: Growth inhibition rate (%) of prickly sida Measured value. As to the method: Upland field soil was put into a 1/300,000 ha pot, and seeds of prickly sida (Sida spinosa L.) were sown. On the next day, predetermined amounts of ONEHOPE NYUZAI (tradename), Click (tradename), Spectrum (tradename), Callisto (tradename) and Clio (tradename) were diluted with water (in an amount corresponding to 1,000 L/ha) and applied for soil treatment by a small sprayer.
On the 28th day after treatment, the state of growth of the prickly sida was visually observed to determine the growth inhibition rate (%). The growth inhibition rate (%) (measured value) and the growth inhibition rate (%) calculated in the same manner as in the above Test Example 1 are shown in Table 10.

The subject of assay [4] is velvetleaf (Abutilon theophrasti Medic.). As to the kind of experiment: Test Example 14: pot test, soil and foliar treatment, visual growth inhibition. Particulars: read-out: Growth inhibition rate (%) of velvetleaf Measured value. From the text:
(§1) Upland field soil was put into a 1/1,000,000 ha pot, and seeds of velvetleaf (Abutilon theophrasti Medic.) were sown. When the velvetleaf reached 4.0 to 4.3-leaf stage, seeds of velvetleaf were further sown in the same pot assuming conditions such that weeds would later grow. On the next day, predetermined amounts of ONEHOPE NYUZAI (tradename), Click (tradename), Callisto (tradename), Mikado (tradename), a wettable powder containing bicyclopyrone as an active ingredient and Clio (tradename) were diluted with water in an amount corresponding to 300 L/ha and applied for soil treatment and for foliar treatment by a small sprayer.
On the 31 st day after treatment, the state of growth of the velvetleaf was visually observed to determine the growth inhibition rate (%). The growth inhibition rate (%) (measured value) and the growth inhibition rate (%) calculated in the same manner as in the above Test Example 1 are shown in Table 14.

Assay [5] shares this test system. As to the kind of experiment: Test Example 16: pot test, soil and foliar treatment, visual growth inhibition. As to conditions: read-out: Growth inhibition rate (%) of velvetleaf Measured value.
Excerpt: as §1, with “Three days later,” for “On the next day,”
On the 29th day after treatment, the state of growth of the velvetleaf was visually observed to determine the growth inhibition rate (%). The growth inhibition rate (%) (measured value) and the growth inhibition rate (%) calculated in the same manner as in the above Test Example 1 are shown in Table 16.

The test system of assay [6] is common cocklebur (Xanthium strumarium L.). The experiment in a line: Test Example 12: pot test, foliar treatment, visual growth inhibition. As to conditions: 250 g/ha, foliar treatment at 4.2 to 4.3-leaf stage, 28th day after treatment, read-out: Growth inhibition rate (%) of common cocklebur Measured value. The procedure: Upland field soil was put into a 1/1,000,000 ha pot, and seeds of common cocklebur (Xanthium strumarium L.) were sown. When the common cocklebur reached 4.2 to 4.3-leaf stage, predetermined amounts of ONEHOPE NYUZAI (tradename), Click (tradename) and water dispersible granules containing flufenacet as an active ingredient (tradename: Cadou, manufactured by Bayer CropScience) were diluted with water (in an amount corresponding to 1,000 L/ha) and applied for foliar treatment by a small sprayer.
On the 28th day after treatment, the state of growth of the common cocklebur was visually observed to determine the growth inhibition rate (%). The growth inhibition rate (%) (measured value) and the growth inhibition rate (%) calculated in the same manner as in the above Test Example 1 are shown in Table 12.

Assay [7] concerns guinea grass (Panicum maximum Jacq.). As to the kind of experiment: Test Example 15: pot test, soil and foliar treatment, visual growth inhibition. Particulars: Megathyrsus maximus, 250 g/ha, 31st day after treatment, read-out: Growth inhibition rate (%) of guinea grass Measured value. As to the method:
Upland field soil was put into a 1/1,000,000 ha pot, and seeds of guinea grass (Panicum maximum Jacq.) were sown. When the guinea grass reached 5.2 to 6.0-leaf stage, seeds of guinea grass were further sown in the same pot assuming conditions such that weeds would later grow. On the next day, predetermined amounts of ONEHOPE NYUZAI (tradename), Click (tradename), Spectrum (tradename) and Cadou (tradename) were diluted with water in an amount corresponding to 300 L/ha and applied for soil treatment and for foliar treatment by a small sprayer.
On the 31 st day after treatment, the state of growth of the guinea grass was visually observed to determine the growth inhibition rate (%). The growth inhibition rate (%) (measured value) and the growth inhibition rate (%) calculated in the same manner as in the above Test Example 1 are shown in Table 15.

Assay [8] concerns wild oat (Avena fatua L.). The experiment in a line: Test Example 2: pot test, soil treatment, visual growth inhibition. As to conditions: 50 g/ha, 28th day after treatment, read-out: Growth inhibition rate (%) of wild oat Measured value. As to the method:
Upland field soil was put into a 1/500,000 ha pot, and seeds of wild oat (Avena fatua L.) were sown. On the next day, predetermined amounts of ONEHOPE NYUZAI (tradename), Click (tradename) and SC formulation containing mesotrione as an active ingredient (tradename: Callisto, manufactured by Syngenta) were diluted with water (in an amount corresponding to 1,000 L/ha) and applied for soil treatment by a small sprayer.
On the 28th day after treatment, the state of growth of the wild oat was visually observed to determine the growth inhibition rate (%). The growth inhibition rate (%) (measured value) and the growth inhibition rate (%) calculated in the same manner as in the above Test Example 1 are shown in Table 2.

Assay [9] relates to green foxtail (Setaria viridis (L.) P.Beauv.). The experiment in a line: Test Example 3: pot test, soil treatment, visual growth inhibition. As to conditions: soil, read-out: Growth inhibition rate (%) of green foxtail Measured value. As to the method: Upland field soil was put into a 1/1,000,000 ha pot, and seeds of green foxtail (Setaria viridis (L.) P.Beauv.) were sown. On the next day, predetermined amounts of ONEHOPE NYUZAI (tradename), Click (tradename) and SC formulation containing sulcotrione as an active ingredient (tradename: Mikado, manufactured by Bayer CropScience) were diluted with water (in an amount corresponding to 1,000 L/ha) and applied for soil treatment by a small sprayer.
On the 27th day after treatment, the state of growth of the green foxtail was visually observed to determine the growth inhibition rate (%). The growth inhibition rate (%) (measured value) and the growth inhibition rate (%) calculated in the same manner as in the above Test Example 1 are shown in Table 3.

Assay [10] concerns korean lespedeza (Kummerowia stipulacea (Maxim.) Makino). The experiment in a line: Test Example 6: pot test, soil treatment, visual growth inhibition. Particulars: soil, read-out: Growth inhibition rate (%) of korean lespedeza Measured value. The procedure:
Upland field soil was put into a 1/300,000 ha pot, and seeds of korean lespedeza (Kummerowia stipulacea (Maxim.) Makino) were sown. On the next day, predetermined amounts of ONEHOPE NYUZAI (tradename), Click (tradename), Mikado (tradename) and a wettable powder containing bicyclopyrone prepared in accordance with a conventional formulation method were diluted with water (in an amount corresponding to 1,000 L/ha) and applied for soil treatment by a small sprayer.
On the 14th day after treatment, the state of growth of the korean lespedeza was visually observed to determine the growth inhibition rate (%). The growth inhibition rate (%) (measured value) and the growth inhibition rate (%) calculated in the same manner as in the above Test Example 1 are shown in Table 6.

Assay [11] deals with sunn-hemp (Crotalaria juncea L.). The experiment in a line: Test Example 7: pot test, soil treatment, visual growth inhibition. As to conditions: soil, read-out: Growth inhibition rate (%) of sunn-hemp Measured value. The procedure:
Upland field soil was put into a 1/300,000 ha pot, and seeds of sunn-hemp (Crotalaria juncea L.) were sown. On the next day, predetermined amounts of ONEHOPE NYUZAI (tradename), Click (tradename), Mikado (tradename) and a wettable powder containing bicyclopyrone prepared in accordance with a conventional formulation method were diluted with water (in an amount corresponding to 1,000 L/ha) and applied for soil treatment by a small sprayer.
On the 28th day after treatment, the state of growth of the sunn-hemp was visually observed to determine the growth inhibition rate (%). The growth inhibition rate (%) (measured value) and the growth inhibition rate (%) calculated in the same manner as in the above Test Example 1 are shown in Table 7.

Assay [12] concerns Japanese millet (Echinochloa utilis Ohwi et Yabuno). The experiment in a line: Test Example 9: pot test, soil treatment, visual growth inhibition. Particulars: soil, read-out: Growth inhibition rate (%) of Japanese millet Measured value. As to the method:
Upland field soil was put into a 1/300,000 ha pot, and seeds of Japanese millet (Echinochloa utilis Ohwi et Yabuno) were sown. On the next day, predetermined amounts of ONEHOPE NYUZAI (tradename), Click (tradename), Mikado (tradename) and a wettable powder containing bicyclopyrone prepared in accordance with a conventional formulation method were diluted with water (in an amount corresponding to 1,000 L/ha) and applied for soil treatment by a small sprayer.
On the 28th day after treatment, the state of growth of the Japanese millet was visually observed to determine the growth inhibition rate (%). The growth inhibition rate (%) (measured value) and the growth inhibition rate (%) calculated in the same manner as in the above Test Example 1 are shown in Table 9.

The test system of assay [13] is annual ragweed (Ambrosia artemisiifolia L.). As to the kind of experiment: Test Example 11: pot test, soil treatment, visual growth inhibition. Particulars: soil, read-out: Growth inhibition rate (%) of annual ragweed Measured value. As to the method:
Upland field soil was put into a 1/300,000 ha pot, and seeds of annual ragweed (Ambrosia artemisiifolia L.) were sown. On the next day, predetermined amounts of ONEHOPE NYUZAI (tradename), Click (tradename), Mikado (tradename) and a wettable powder containing bicyclopyrone prepared in accordance with a conventional formulation method were diluted with water (in an amount corresponding to 1,000 L/ha) and applied for soil treatment by a small sprayer.
On the 28th day after treatment, the state of growth of the annual ragweed was visually observed to determine the growth inhibition rate (%). The growth inhibition rate (%) (measured value) and the growth inhibition rate (%) calculated in the same manner as in the above Test Example 1 are shown in Table 11.

Each structure is given as a SMILES string.

In general, inhibition refers to the relative decrease from the control value, in per cent. With `Cc1c(C(=O)c2cnn(C)c2O)ccc(S(C)(=O)=O)c1C1=NOCC1` [Topramezone, [3-(4,5-dihydro-1,2-oxazol-3-yl)-4-mesyl-o-tolyl](5-hydroxy-1-methylpyrazol-4-yl)methanone], the inhibition at 40 g/ha in assay [1] came to 30%. Further, the inhibition at 100 g/ha in assay [2] was 80%. Further, in [3] (soil), the inhibition at 10 g/ha is 0%. Also, in [4], the inhibition at 10 g/ha amounted to 8% and the inhibition at 60 g/ha stood at 65%. Further, the inhibition at 20 g/ha in assay [5] was 50%.

For the molecule `CC(C)N(C(=O)COc1nnc(C(F)(F)F)s1)c1ccc(F)cc1` [Flufenacet, 4'-fluoro-N-isopropyl-2-[5-(trifluoromethyl)-1,3,4-thidiazol-2-yloxy]acetanilide], the inhibition at 250 g/ha in [6] is 0%; in [7] it was 50%.

As to `CS(=O)(=O)c1ccc(C(=O)C2C(=O)CCCC2=O)c([N+](=O)[O-])c1` [Mesotrione, 2-(4-mesyl-2-nitrobenzoyl)cyclohexane-1,3-dione], the inhibition at 50 g/ha in [8] worked out at 0%; in [4] (50 g/ha, soil treatment and foliar treatment, 31st day after treatment) it was 91%. For the same molecule, the inhibition at 25 g/ha in [3] (25 g/ha, soil treatment, 28th day after treatment) stood at 25%. The inhibition at 120 g/ha in [4] (120 g/ha, soil treatment and foliar treatment, 31st day after treatment) was found to be 93%. For the same molecule, the inhibition at 75 g/ha in [5] (75 g/ha, soil treatment and foliar treatment, 29th day after treatment) turned out to be 89%.

As to `CS(=O)(=O)c1ccc(C(=O)C2C(=O)CCCC2=O)c(Cl)c1` [Sulcotrione, 2-(2-chloro-4-mesylbenzoyl)cyclohexane-1,3-dione], the inhibition at 300 g/ha in assay [9] amounted to 5%; in assay [4], 90%. Also, in assay [10], the inhibition at 1000 g/ha worked out at 15%. Moreover, the inhibition at 50 g/ha in assay [11] is 10%; in assay [12], 20%. Also, the inhibition at 2000 g/ha in [13] worked out at 85%. In assay [4], the inhibition at 100 g/ha came out at 88%. The inhibition at 200 g/ha in assay [5] stood at 88%.
